Laboratory results published in the OligoGym collection.
“And” between values parts separate entries of the source, which are not always exact repeats. Equal entries are not always repeated. After the bases stand the sugars from the 5' end (letter, count) and the backbone: PS all phosphorothioate, else s phosphorothioate and o phosphodiester by linkage. Methylation of C is not given here. e = 2'-O-(2-methoxyethyl) (MOE); k = constrained ethyl (cEt); d = 2'-deoxy (DNA)

Target: IRF4
Settings: ASO

Sequence	target mRNA inhibition (SK-MEL-28, 4 µM) [%]	target mRNA inhibition (MM.1R, 1 µM)	other results
TATCAGATACACACCC (sugars k3 d10 k3, PS)	19	–	–
CTTCTTTATAGTAGGT (sugars k3 d10 k3, PS)	20	–	–
GTCAATACTGAAAGGC (sugars k3 d10 k3, PS)	66	–	–
TTTTACCTGGTATTGC (sugars k3 d10 k3, PS)	-2	–	–
AAGCTTGATAAAGGCT (sugars kkkdddddddddkeke, PS)	–	-18%	–
ACTCTTAGGCACATCA (sugars k3 d10 k3, PS)	–	27%	–
GTTGCATAGGCATCCT (sugars k3 d10 k3, PS)	–	27%	–
AAATCACGAGGTTGCC (sugars k3 d10 k3, PS)	–	21%	–
TCACAGAGCCAACTTA (sugars k3 d10 k3, PS)	-12	–	–
AGCCGCTACAGCTTCT (sugars k3 d10 k3, PS)	-8	–	–
GCTAGCAGGAGCGAGA (sugars k3 d10 k3, PS)	–	-5%	–
ACCTGCTGGCAGTTCT (sugars k3 d10 k3, PS)	61	–	–
CACTGAACCATGTTCC (sugars k3 d10 k3, PS)	61	–	–
GGAATCTTGGCAGGGA (sugars k3 d10 k3, PS)	48	–	–
GCAGGTTTCATTTCAT (sugars k3 d10 k3, PS)	44	–	–
GACAATGTTGTATGAA (sugars k3 d10 k3, PS)	72	–	–
AGTGACTTGCATCCAT (sugars kkdddddddddkdkdk, PS)	–	22%	–
TGTAGTATGAGAAACG (sugars k3 d9 k3 e1, PS)	–	33%	–
ACAGATAGTTAAGTAC (sugars k3 d10 k3, PS)	35	–	–
CAGGCGGACACGCCCG (sugars k3 d10 k3, PS)	–	-5%	–
TTTATGTTAGCCAATT (sugars kddddddddddkekek, PS)	–	0% and -12%	–
CTCACGAGCACCTCAG (sugars k3 d10 k3, PS)	42	–	–
CCTTTTCAGAGTCCTG (sugars k3 d10 k3, PS)	58	–	–
TTGGTTGGCTGGTCTT (sugars kddddddddddkekek, PS)	–	34%	–
GTAGTCCTGCTTGCCC (sugars k3 d10 k3, PS)	44	–	–
TCAGAATTTAGTTAGT (sugars k3 d10 k3, PS)	33	–	–

Sequence	target mRNA inhibition (SK-MEL-28, 4 µM) [%]	target mRNA inhibition (MM.1R, 1 µM)	other results
TCTGAGGGTCTGGAAA (sugars k3 d10 k3, PS)	9	–	–
ATTCACACTGCCGTGA (sugars k3 d10 k3, PS)	34	–	–
CCTGAATTTACAGCAT (sugars k3 d10 k3, PS)	40	–	–
AATTCTCCTATGCTGA (sugars k3 d10 k3, PS)	13	–	–
ACACGCCCGACCCTCC (sugars k3 d10 k3, PS)	–	4%	–
CAGCATATTACAAACG (sugars k3 d10 k3, PS)	58	–	–
CAGTGATGTCAGGTTT (sugars kkdddddddddkekek, PS)	–	64%	target mRNA inhibition (MM.1R, 0.074 µM): 8%; target mRNA inhibition (MM.1R, 0.222 µM): 28%; target mRNA inhibition (MM.1R, 0.666 µM): 53%; target mRNA inhibition (MM.1R, 2 µM): 77%
TGACTCCATGAGGTTT (sugars k3 d10 k3, PS)	65	–	–
GGAGAGGGCGACGACA (sugars k3 d10 k3, PS)	–	-1%	–
CCATATACATTGAGGC (sugars k3 d10 k3, PS)	44	–	–
CTGCGGGTCCTCCAGG (sugars k3 d10 k3, PS)	20	–	–
TCGGAGCTGAGGGCAG (sugars k3 d10 k3, PS)	18	–	–
GTAATGTAGGGATACA (sugars k3 d10 k3, PS)	48	–	–
TTTAAGAGGCGACTGC (sugars k3 d10 k3, PS)	–	-100%	–
AGCAGTAAACGCAAGT (sugars k3 d10 k3, PS)	–	27%	–
CAAAACCAGTACAGTC (sugars k3 d10 k3, PS)	49	–	–
GGGCAAGATGAGAATT (sugars k3 d10 k3, PS)	0	–	–
CTTATTTGTGGCTCAA (sugars k3 d10 k3, PS)	55	–	–
GGAAGTTTACACTGGA (sugars kdddddddddkekeke, PS)	–	32%	–
CTAACTTACAGGACTA (sugars k3 d10 k3, PS)	31	–	–
GTACACAAGACAAATC (sugars k3 d10 k3, PS)	21	–	–
GGCTCCGCTCAACCAG (sugars k3 d10 k3, PS)	–	9%	–
GTATTTCATAGCTAGT (sugars k3 d10 k3, PS)	69	–	–
AATGTGTATTACTCTT (sugars kkdddddddddkekek, PS)	–	52% and 41%	–
GTGATGTCAGGTTTTC (sugars k3 d10 k3, PS)	–	66%	target mRNA inhibition (MM.1R, 0.074 µM): 11%; target mRNA inhibition (MM.1R, 0.222 µM): 38%; target mRNA inhibition (MM.1R, 0.666 µM): 66%; target mRNA inhibition (MM.1R, 2 µM): 90%
